biological target: recombinant DYRK1A kinase (Homo sapiens (Human), UniProt Q13627); experiment: DYRK1A kinase assay (Ser/Thr 18 peptide Z-lyte FRET assay); type: biochemical; conditions: recombinant DYRK1A 0.25 µg/mL, ATP 15 µM, Ser/Thr peptide 18 4 µM, one hour at room temperature; table head prints EC50, method says IC50
Method in brief: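 Z-lyte FRET format: 1 h room-temperature reaction of 15 µM ATP, 4 µM Ser/Thr 18 peptide and 0.25 µg/mL recombinant human DYRK1A, in duplicate over 11 compound concentrations up to 10 µM. IC50 was derived by non-linear regression of percent phosphorylation calculated from coumarin/fluorescein emission ratios.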

EC50 | Structure (SMILES)
9 nM | c1cn2cc(-c3ccn4nc(NCC5CC5)ncc34)cnc2n1 [Compound 229, N-(Cyclopropylmethyl)-5-(imidazo[1,2-a]pyrimidin-6-yl)pyrrolo[2,1-f] [1,2,4]triazin-2-amine]
1 nM | CC(=O)N[C@]1(C)C[C@@H](Nc2ncc3c(-c4ccn5nccc5c4)ccn3n2)C1 [Compound 1983, N-(trans-1-Methyl-3-((5-(pyrazolo[1,5-a]pyridin-5-yl)pyrrolo[2,1-f][1,2,4]triazin-2-yl)amino)cyclobutyl)acetamide]
4 nM | Cc1nc2ccc(-c3ccn4nc(N[C@H]5CC[C@@H](OCCO)CC5)ncc34)nc2n1CC(F)F [Compound 1839, 2-((cis-4-((5-(3-(2,2-difluoroethyl)-2-methyl-3H-imidazo[4,5-b]pyridin-5-yl)pyrrolo[2,1-f][1,2,4]triazin-2-yl)amino)cyclohexyl)oxy)ethan-1-ol]
61 nM | c1cn2cc(-c3ccn4nc(NCC5CCCO5)ncc34)ccc2n1 (centres unmarked) [Compound 21, 5-(Imidazo[1,2-a]pyridin-6-yl)-N-((tetrahydrofuran-2-yl)methyl)pyrrolo[2,1-f][1,2,4]triazin-2-amine]
1 nM | CC(=O)N1CC2(CCC(Nc3ncc4c(-c5ccc6nc(C)n(CC(F)F)c6n5)ccn4n3)CC2)C1 [Compound 1899, 1-(7-((5-(3-(2,2-difluoroethyl)-2-methyl-3H-imidazo[4,5-b]pyridin-5-yl)pyrrolo[2,1-f][1,2,4]triazin-2-yl)amino)-2-azaspiro[3.5]nonan-2-yl)ethan-1-one]
25 nM | Cc1cnc2ncc(-c3ccn4nc(NCC(C)(C)F)ncc34)cn12 [Compound 358, N-(2-Fluoro-2-methylpropyl)-5-(3-methylimidazo[1,2-a]pyrimidin-6-yl) pyrrolo[2,1-f] [1,2,4]triazin-2-amine]
28 nM | COCCO[C@H]1CC[C@H](Nc2ncc3c(-c4cnc5nc(C)n(CC(F)F)c5c4)ccn3n2)CC1 [Compound 692, 5-(1-(2,2-Difluoroethyl)-2-methyl-1H-imidazo[4,5-b]pyridin-6-yl)-N-(trans-4-(2-methoxyethoxy)cyclohexyl)pyrrolo[2,1-f][1,2,4]triazin-2-amine]
4 nM | Cc1nc2ccc(-c3ccn4nc(N[C@H]5CN(C)C[C@@H]5F)ncc34)nc2n1CC(F)F [Compound 1901, 5-(3-(2,2-Difluoroethyl)-2-methyl-3H-imidazo[4,5-b]pyridin-5-yl)-N-((3S,4S)-4-fluoro-1-methylpyrrolidin-3-yl)pyrrolo [2,1-f] [1,2,4]triazin-2-amine]
8 nM | Cc1nc2ccc(-c3ccn4nc(NCC(C)(C)O)ncc34)nc2n1CC(F)F [Compound 1833, 1-((5-(3-(2,2-Difluoroethyl)-2-methyl-3H-imidazo[4,5-b]pyridin-5-yl)pyrrolo[2,1-f][1,2,4]triazin-2-yl)amino)-2-methylpropan-2-ol]
31 nM | Cc1nc2ncc(-c3ccn4nc(N[C@H]5CCN(C)C[C@H]5F)ncc34)cc2n1CC(F)F [Compound 1887, 5-(1-(2,2-Difluoroethyl)-2-methyl-1H-imidazo[4,5-b]pyridin-6-yl)-N-((3R,4S)-3-fluoro-1-methylpiperidin-4-yl)pyrrolo[2,1-f][1,2,4]triazin-2-amine]
654 nM | CCc1cnc2ncc(-c3ccn4nc(NCC(C)(C)F)ncc34)cn12 [Compound 429, 5-(3-Ethylimidazo[1,2-a]pyrimidin-6-yl)-N-(2-fluoro-2-methylpropyl) pyrrolo[2,1-f] [1,2,4]triazin-2-amine]
14 nM | CO[C@H]1C[C@H](Nc2ncc3c(-c4ccc5nccnc5c4)ccn3n2)C1 [Compound 1376, N-(trans-3-Methoxycyclobutyl)-5-(quinoxalin-6-yl)pyrrolo[2,1-f][1,2,4] triazin-2-amine]
7 nM | Cc1nc2ncc(-c3ccn4nc(N[C@@H]5CCN(C)C[C@@H]5F)ncc34)cc2n1CC(F)F [Compound 1884, 5-(1-(2,2-Difluoroethyl)-2-methyl-1H-imidazo[4,5-b]pyridin-6-yl)-N-((3S,4R)-3-fluoro-1-methylpiperidin-4-yl)pyrrolo[2,1-f][1,2,4]triazin-2-amine]
40 nM | c1cn2cc(-c3ccn4nc(NC5CCOCC5)ncc34)ccc2n1 [Compound 67, 5-(Imidazo[1,2-a]pyridin-6-yl)-N-(tetrahydro-2H-pyran-4-yl)pyrrolo[2,1-f] [1,2,4]triazin-2-amine]
3 nM | CC1(C)CC(Nc2ncc3c(-c4cnc5nccn5c4)ccn3n2)C1 [Compound 237, N-(3,3-Dimethylcyclobutyl)-5-(imidazo[1,2-a]pyrimidin-6-yl)pyrrolo[2,1-f] [1,2,4]triazin-2-amine]
27 nM | CCn1c(C)nc2ccc(-c3ccn4nc(NCC(C)(C)F)ncc34)nc21 [Compound 926, 5-(3-Ethyl-2-methyl-3H-imidazo[4,5-b]pyridin-5-yl)-N-(2-fluoro-2-methylpropyl)pyrrolo[2,1-f][1,2,4]triazin-2-amine]

EC50 | Structure (SMILES)
7 nM | Cc1nc2ccc(-c3ccn4nc(N[C@@H]5CCOC[C@H]5F)ncc34)nc2n1CC(F)F [Compound 1912, 5-(3-(2,2-Difluoroethyl)-2-methyl-3H-imidazo[4,5-b]pyridin-5-yl)-N-((3S,4R)-3-fluorotetrahydro-2H-pyran-4-yl)pyrrolo[2,1-f] [1,2,4]triazin-2-amine]
264 nM | CN1CCC(Nc2ncc3c(-c4ccc5nccn5c4)ccn3n2)CC1 [Compound 66, 5-(Imidazo[1,2-a]pyridin-6-yl)-N-(1-methylpiperidin-4-yl)pyrrolo[2,1-f] [1,2,4]triazin-2-amine]
3 nM | CO[C@H]1CC[C@@H](Nc2ncc3c(-c4cnc5nc(C)n(CC(F)F)c5c4)ccn3n2)CC1 [Compound 685, 5-(1-(2,2-Difluoroethyl)-2-methyl-1H-imidazo[4,5-b]pyridin-6-yl)-N-(cis-4-methoxycyclohexyl)pyrrolo[2,1-f] [1,2,4]triazin-2-amine]
6 nM | Cc1nc2ccc(-c3ccn4nc(N[C@H]5CC[C@@H](OCC(F)F)CC5)ncc34)nc2n1CC(F)F [Compound 1838]
4 nM | FC(F)(F)O[C@H]1CC[C@@H](Nc2ncc3c(-c4cnc5ncccc5c4)ccn3n2)CC1 [Compound 1798, 5-(1,8-Naphthyridin-3-yl)-N-(cis-4-(trifluoromethoxy)cyclohexyl)pyrrolo [2,1-f][1,2,4]triazin-2-amine]
7 nM | O[C@H]1CC[C@@H](Nc2ncc3c(-c4cnc5ncccc5c4)ccn3n2)CC1 [Compound 1535, cis-4-((5-(1.8-Naphthyridin-3-yl)pyrrolo[2,1-f][1,2,4]triazin-2-yl)amino) cyclohexan-1-ol]
18 nM | CN1CCC(Nc2ncc3c(-c4cnc5ncccc5c4)ccn3n2)CC1 [Compound 1557, N-(1 -Methylpiperidin-4-yl)-5-(1,8-naphthyridin-3-yl)pyrrolo [2,1-f] [1,2,4] triazin-2-amine]
3 nM | Cc1nc2ccc(-c3ccn4nc(N[C@H]5CC[C@@H](C(=O)N6CC(F)(F)C6)CC5)ncc34)nc2n1CC(F)F [Compound 1950, (3,3-Difluoroazetidin-1-yl)(cis-4-((5-(3-(2,2-difluoroethyl)-2-methyl-3H-imidazo[4,5-b]pyridin-5-yl)pyrrolo[2,1-f][1,2,4]triazin-2-yl)amino)cyclohexyl)methanone]
20 nM | CN1CC2(CC(Nc3ncc4c(-c5cnc6nccn6c5)ccn4n3)C2)C1 [Compound 283, 5-(Imidazo[1,2-a]pyrimidin-6-yl)-N-(2-methyl-2-azaspiro[3.3]heptan-6-yl)pyrrolo[2,1-f][1,2,4]triazin-2-amine]
3 nM | CC(=O)N[C@H]1CC[C@H](Nc2ncc3c(-c4ccc5nc(C)n(CC(F)F)c5n4)ccn3n2)CC1 [Compound 1844, N-(trans-4-((5-(3-(2,2-Difluoroethyl)-2-methyl-3H-imidazo[4,5-b]pyridin-5-yl)pyrrolo[2,1-f][1,2,4]triazin-2-yl)amino)cyclohexyl)acetamide]
4 nM | Cc1nc2ccc(-c3ccn4nc(N[C@H]5CCN(C)C(=O)C5)ncc34)nc2n1CC(F)F [Compound 1911, (S)-4-((5-(3-(2,2-Difluoroethyl)-2-methyl-3H-imidazo [4,5-b]pyridin-5-yl)pyrrolo[2,1-f] [1,2,4]triazin-2-yl)amino)-1-methylpiperidin-2-one]
7 nM | Cc1nc2ncc(-c3ccn4nc(N[C@H]5CC[C@@H](OC(F)(F)F)CC5)ncc34)nc2n1CC(F)F [Compound 1970, 5-(1-(2,2-Difluoroethyl)-2-methyl-1H-imidazo[4,5-b]pyrazin-6-yl)-N-(cis-4-(trifluoromethoxy)cyclohexyl)pyrrolo[2,1-f][1,2,4]triazin-2-amine]
5 nM | COCCO[C@H]1CC[C@H](Nc2ncc3c(-c4ccc5nc(C)n(CC(F)F)c5n4)ccn3n2)CC1 [Compound 1118, 5-(3-(2,2-Difluoroethyl)-2-methyl-3H-imidazo[4,5-b]pyridin-5-yl)-N-(trans-4-(2-methoxyethoxy)cyclohexyl)pyrrolo[2,1-f][1,2,4]triazin-2-amine]
4 nM | Cc1nc2ccc(-c3ccn4nc(NC5CC(F)(F)C5)ncc34)nc2n1CC(F)F [Compound 1088, N-(3,3-Difluorocyclobutyl)-5-(3-(2,2-difluoroethyl)-2-methyl-3H-imidazo [4,5-b]pyridin-5-yl)pyrrolo[2,1-f][1,2,4]triazin-2-amine]
2 nM | Cc1nc2ncc(-c3ccn4nc(N[C@H]5CC[C@@H](OCCO)CC5)ncc34)cc2n1CC(F)F [Compound 1878, 2-((cis-4-((5-(1-(2,2-Difluoroethyl)-2-methyl-1H-imidazo[4,5-b]pyridin-6-yl)pyrrolo[2,1-f][1,2,4]triazin-2-yl)amino)cyclohexyl)oxy)ethan-1-ol]
43 nM | Cc1nc2ccc(-c3ccn4nc(NCC(C)(C)F)ncc34)nc2n1C [Compound 855, 5-(2,3-Dimethyl-3H-imidazo[4,5-b]pyridin-5-yl)-N-(2-fluoro-2-methylpropyl)pyrrolo[2,1-f][1,2,4]triazin-2-amine]
